US9580437B2, “Triazolopyrimidine compounds and uses thereof” (Novartis AG, priority 2014, dated 2017)
Each block holds one molecule with its values, some of them ahead of it.

Experiments:
[1] = target: wild type PRC2 (wtPRC2) complex (Homo sapiens (Human), UniProt O75530); assay: EED LC-MS assay; format: biochemical; conditions: read-out: (b) IC50 EED LC-MS Qualified
Procedure: A 6 μL solution of 3 μM of the peptide substrate H3K27Me0 (histone H3[21-44]-biotin) in reaction buffer was added to initiate each reaction. […] ELISA (H3K27 Methylation) Assay

[2] = target: EED (1-441)-His protein (Homo sapiens (Human), UniProt O75530); assay: EED-H3K27Me3 peptide competition binding assay by AlphaScreen; conditions: read-out: (a) IC50 EED Alphascreen binding Qualified
Chain of EED (1-441)-His protein (O75530 whole entry): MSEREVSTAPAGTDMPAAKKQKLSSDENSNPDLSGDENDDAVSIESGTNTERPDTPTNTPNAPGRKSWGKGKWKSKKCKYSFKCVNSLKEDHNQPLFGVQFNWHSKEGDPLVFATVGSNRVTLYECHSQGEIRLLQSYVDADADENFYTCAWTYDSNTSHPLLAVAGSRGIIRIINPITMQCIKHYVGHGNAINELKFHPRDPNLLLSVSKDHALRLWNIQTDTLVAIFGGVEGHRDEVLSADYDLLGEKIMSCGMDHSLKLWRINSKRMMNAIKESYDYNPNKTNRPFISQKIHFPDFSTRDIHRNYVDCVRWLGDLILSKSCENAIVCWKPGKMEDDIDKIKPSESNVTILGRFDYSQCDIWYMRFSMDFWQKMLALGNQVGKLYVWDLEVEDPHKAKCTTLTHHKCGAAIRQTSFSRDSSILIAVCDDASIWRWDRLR
Excerpt: EED-H3K27Me3 peptide competition binding assay by AlphaScreen (α-screen)

Chain of wild type PRC2 (wtPRC2) complex (O75530 whole entry): as above
Chain of wild type PRC2 (wtPRC2) complex (Q15910 whole entry partner): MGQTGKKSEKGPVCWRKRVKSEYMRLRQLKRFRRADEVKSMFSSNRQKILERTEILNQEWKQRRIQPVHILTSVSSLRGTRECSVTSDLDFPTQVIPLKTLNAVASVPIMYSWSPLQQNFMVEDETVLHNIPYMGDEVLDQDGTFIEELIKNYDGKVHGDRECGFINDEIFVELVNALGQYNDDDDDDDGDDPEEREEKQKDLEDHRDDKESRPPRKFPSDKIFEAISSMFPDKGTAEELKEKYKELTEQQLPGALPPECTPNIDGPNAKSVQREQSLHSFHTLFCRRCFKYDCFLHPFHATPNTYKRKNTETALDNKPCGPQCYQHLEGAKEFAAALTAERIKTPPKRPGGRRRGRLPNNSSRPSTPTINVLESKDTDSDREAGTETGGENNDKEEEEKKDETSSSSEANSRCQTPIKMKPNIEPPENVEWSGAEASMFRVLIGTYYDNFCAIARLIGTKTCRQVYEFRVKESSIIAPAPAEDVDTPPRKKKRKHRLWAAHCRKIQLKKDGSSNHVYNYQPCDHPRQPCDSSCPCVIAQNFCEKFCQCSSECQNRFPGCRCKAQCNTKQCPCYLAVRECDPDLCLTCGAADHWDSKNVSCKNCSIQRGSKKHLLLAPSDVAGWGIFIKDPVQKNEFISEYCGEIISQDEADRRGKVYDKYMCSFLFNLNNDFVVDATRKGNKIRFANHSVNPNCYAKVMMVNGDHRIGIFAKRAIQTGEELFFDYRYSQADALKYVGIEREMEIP
Chain of wild type PRC2 (wtPRC2) complex (Q15022 whole entry partner): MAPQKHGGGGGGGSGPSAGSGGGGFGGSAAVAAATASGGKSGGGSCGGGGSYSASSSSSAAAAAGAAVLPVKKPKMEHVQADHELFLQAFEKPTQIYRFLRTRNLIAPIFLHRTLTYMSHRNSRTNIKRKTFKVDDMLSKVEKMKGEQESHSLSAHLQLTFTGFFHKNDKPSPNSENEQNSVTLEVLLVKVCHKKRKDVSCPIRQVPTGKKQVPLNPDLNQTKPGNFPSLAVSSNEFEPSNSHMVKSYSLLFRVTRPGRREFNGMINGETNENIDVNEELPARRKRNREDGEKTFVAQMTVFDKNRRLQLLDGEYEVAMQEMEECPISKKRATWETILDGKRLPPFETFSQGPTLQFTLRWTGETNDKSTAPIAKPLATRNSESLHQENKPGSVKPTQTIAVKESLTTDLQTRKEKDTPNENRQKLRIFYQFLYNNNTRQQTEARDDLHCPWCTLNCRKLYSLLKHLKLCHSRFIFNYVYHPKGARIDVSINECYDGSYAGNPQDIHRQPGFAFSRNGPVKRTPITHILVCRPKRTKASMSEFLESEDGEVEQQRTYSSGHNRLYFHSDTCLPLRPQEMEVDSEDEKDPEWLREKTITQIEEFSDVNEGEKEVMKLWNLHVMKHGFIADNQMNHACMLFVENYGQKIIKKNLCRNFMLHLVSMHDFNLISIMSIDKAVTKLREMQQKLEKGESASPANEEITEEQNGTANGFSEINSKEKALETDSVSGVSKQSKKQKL

Compound: CN1CCN(c2cc(-c3cnc(NCc4cccc5occc45)n4cnnc34)ccn2)CC1 [Example 212, N-(benzofuran-4-ylmethyl)-8-(2-(4-methylpiperazin-1-yl)pyridin-4-yl)-[1,2,4]triazolo[4,3-c]pyrimidin-5-amine]
IC50 [1]: 33.8 nM
IC50 [2]: 31.2 nM

Compound: Fc1ccc2c(c1CNc1ncc(-n3cncn3)c3nncn13)CCO2 [Example 241, N-((5-fluoro-2,3-dihydrobenzofuran-4-yl)methyl)-8-(1H-1,2,4-triazol-1-yl)-[1,2,4]triazolo[4,3-c]pyrimidin-5-amine]
IC50 [1]: 30 nM
IC50 [2]: 11.3 nM

Compound: CC1(C)COC(c2ccc(-c3cnc(NCc4cccc5c4CCO5)n4cnnc34)cn2)=N1 [Example 101, N-((2,3-dihydrobenzofuran-4-yl)methyl)-8-(6-(4,4-dimethyl-4,5-dihydrooxazol-2-yl)pyridin-3-yl)-[1,2,4]triazolo[4,3-c]pyrimidin-5-amine]
IC50 [1]: 13.6 nM
IC50 [2]: 11.7 nM

Compound: O=CN1CCN(c2ccc(-c3cnc(NCc4cccc5c4CCO5)n4cnnc34)cn2)CC1 [Example 134, 4-(5-(5-(((2,3-dihydrobenzofuran-4-yl)methyl)amino)-[1,2,4]triazolo[4,3-c]pyrimidin-8-yl)pyridin-2-yl)piperazine-1-carbaldehyde]
IC50 [1]: 30.5 nM
IC50 [2]: 17.3 nM

Compound: Cc1cc(-c2cnc(NCc3cccc4c3CCO4)n3cnnc23)cnc1N1CCN(C)CC1 [Example 36, N-((2,3-dihydrobenzofuran-4-yl)methyl)-8-(5-methyl-6-(4-methylpiperazin-1-yl)pyridin-3-yl)-[1,2,4]triazolo[4,3-c]pyrimidin-5-amine]
IC50 [1]: 22.4 nM
IC50 [2]: 18.5 nM

Compound: Cc1nc(N)ccc1-c1cnc(NCc2c(F)ccc3c2CCO3)n2cnnc12 [Example 156, 8-(6-amino-2-methylpyridin-3-yl)-N-((5-fluoro-2,3-dihydrobenzofuran-4-yl)methyl)-[1,2,4]triazolo[4,3-c]pyrimidin-5-amine]
IC50 [1]: 17.3 nM
IC50 [2]: 4 nM

Compound: CC(c1ccc(-c2cnc(NCc3c(F)ccc4c3CCO4)n3cnnc23)cc1)N1CCCC1 (centres unmarked) [Example 46, N-((5-fluoro-2,3-dihydrobenzofuran-4-yl)methyl)-8-(4-(1-(pyrrolidin-1-yl)ethyl)phenyl)-[1,2,4]triazolo[4,3-c]pyrimidin-5-amine]
IC50 [1]: 64 nM
IC50 [2]: 43.5 nM

Compound: COc1ccc(-c2cnc(NCc3c(F)ccc4c3CCO4)n3cnnc23)c(C)n1 [Example 155, N-((5-fluoro-2,3-dihydrobenzofuran-4-yl)methyl)-8-(6-methoxy-2-methylpyridin-3-yl)-[1,2,4]triazolo[4,3-c]pyrimidin-5-amine]
IC50 [1]: 45.3 nM
IC50 [2]: 17 nM

Compound: c1cc(CNc2ncc(-c3cnn(C4CC4)c3)c3nncn23)c2c(c1)OCC2 [Example 149, 8-(1-cyclopropyl-1H-pyrazol-4-yl)-N-((2,3-dihydrobenzofuran-4-yl)methyl)-[1,2,4]triazolo[4,3-c]pyrimidin-5-amine]
IC50 [1]: 33.7 nM
IC50 [2]: 16.9 nM

Compound: Fc1ccc2c(c1CNc1ncc(-c3cncnc3C(F)F)c3nncn13)CCO2 [Example 191, 8-(4-(difluoromethyl)pyrimidin-5-yl)-N-((5-fluoro-2,3-dihydrobenzofuran-4-yl)methyl)-[1,2,4]triazolo[4,3-c]pyrimidin-5-amine]
IC50 [1]: 13.1 nM
IC50 [2]: 3.8 nM

Compound: Cc1ccncc1-c1cnc(NCc2c(F)ccc3c2CCO3)n2cnnc12 [Example 118, N-((5-fluoro-2,3-dihydrobenzofuran-4-yl)methyl)-8-(4-methylpyridin-3-yl)-[1,2,4]triazolo[4,3-c]pyrimidin-5-amine]
IC50 [1]: 18.2 nM
IC50 [2]: 10.1 nM

Compound: c1cc(CNc2ncc(-c3cncnc3)c3nncn23)c2c(c1)OCC2 [Example 51, N-((2,3-dihydrobenzofuran-4-yl)methyl)-8-(pyrimidin-5-yl)-[1,2,4]triazolo[4,3-c]pyrimidin-5-amine]
IC50 [1]: 346 nM
IC50 [2]: 136 nM

Compound: Cn1cc(-c2cnc(NCc3cccc4c3CCO4)n3cnnc23)cn1 [Example 25, N-((2,3-dihydrobenzofuran-4-yl)methyl)-8-(1-methyl-1H-pyrazol-4-yl)-[1,2,4]triazolo[4,3-c]pyrimidin-5-amine]
IC50 [1]: 44.9 nM
IC50 [2]: 30.7 nM

Compound: c1ccc(-c2cnc(NCc3cccc4occc34)n3cnnc23)cc1 [Example 217, N-(benzofuran-4-ylmethyl)-8-phenyl-[1,2,4]triazolo[4,3-c]pyrimidin-5-amine]
IC50 [1]: 111 nM
IC50 [2]: 363 nM

Compound: Fc1ccc2c(c1CNc1ncc(F)c3nncn13)CCO2 [Example 235, 8-fluoro-N-((5-fluoro-2,3-dihydrobenzofuran-4-yl)methyl)-[1,2,4]triazolo[4,3-c]pyrimidin-5-amine]
IC50 [1]: 65.3 nM
IC50 [2]: 39.9 nM

Compound: CN1CCC(S(=O)(=O)c2ccc(-c3cnc(NCc4cccc5occc45)n4cnnc34)cc2)CC1 [Example 220, N-(benzofuran-4-ylmethyl)-8-(4-((1-methylpiperidin-4-yl)sulfonyl)phenyl)-[1,2,4]triazolo[4,3-c]pyrimidin-5-amine]
IC50 [1]: 21.6 nM
IC50 [2]: 14.1 nM

Compound: CN(C)c1ncc(-c2cnc(NCc3cccc4c3CCO4)n3cnnc23)cn1 [Example 88, N-((2,3-dihydrobenzofuran-4-yl)methyl)-8-(2-(dimethylamino)pyrimidin-5-yl)-[1,2,4]triazolo[4,3-c]pyrimidin-5-amine]
IC50 [1]: 34.7 nM
IC50 [2]: 25.7 nM

Further lines, results first:

IC50 [1]: 8.2 nM
IC50 [2]: 4.1 nM
Compound: Cc1cc(-c2cnc(NCc3c(F)ccc4c3CCO4)n3cnnc23)n(C)n1 [Example 1, 8-(1,3-dimethyl-1H-pyrazol-5-yl)-N-((5-fluoro-2,3-dihydrobenzofuran-4-yl)methyl)-[1,2,4]triazolo[4,3-c]pyrimidin-5-amine]

IC50 [1]: 5.2 nM
IC50 [2]: 3.3 nM
Compound: Cc1ccc(-c2cnc(NCc3c(F)ccc4c3CCO4)n3cnnc23)c(C)n1 [Example 167, 8-(2,6-dimethylpyridin-3-yl)-N-((5-fluoro-2,3-dihydrobenzofuran-4-yl)methyl)-[1,2,4]triazolo[4,3-c]pyrimidin-5-amine]

IC50 [1]: 6 nM
IC50 [2]: 6.1 nM
Compound: Fc1ccc2c(c1CNc1ncc(-c3ccccn3)c3nncn13)CCO2 [Example 231, N-((5-fluoro-2,3-dihydrobenzofuran-4-yl)methyl)-8-(pyridin-2-yl)-[1,2,4]triazolo[4,3-c]pyrimidin-5-amine]

IC50 [1]: 13 nM
IC50 [2]: 6.3 nM
Compound: Nc1cc(F)c(-c2cnc(NCc3cccc4c3CCO4)n3cnnc23)cn1 [Example 58, 8-(6-amino-4-fluoropyridin-3-yl)-N-((2,3-dihydrobenzofuran-4-yl)methyl)-[1,2,4]triazolo[4,3-c]pyrimidin-5-amine]

IC50 [1]: 11.3 nM
IC50 [2]: 5.9 nM
Compound: Fc1ccc2c(c1CNc1ncc(-c3ccc(C(F)(F)F)nc3)c3nncn13)CCO2 [Example 160, N-((5-fluoro-2,3-dihydrobenzofuran-4-yl)methyl)-8-(6-(trifluoromethyl)pyridin-3-yl)-[1,2,4]triazolo[4,3-c]pyrimidin-5-amine]

IC50 [1]: 6 nM
IC50 [2]: 3.5 nM
Compound: Cc1nn(C[C@@H](C)O)c(C)c1-c1cnc(NCc2c(F)ccc3c2CCO3)n2cnnc12 [Example 186, (2R)-1-(4-(5-(((5-fluoro-2,3-dihydrobenzofuran-4-yl)methyl)amino)-[1,2,4]triazolo[4,3-c]pyrimidin-8-yl)-3,5-dimethyl-1H-pyrazol-1-yl)propan-2-ol]

IC50 [1]: 11.2 nM
IC50 [2]: 5.4 nM
Compound: OCc1ccc(-c2cnc(NCc3c(F)ccc4c3CCO4)n3cnnc23)cn1 [Example 234, (5-(5-(((5-fluoro-2,3-dihydrobenzofuran-4-yl)methyl)amino)-[1,2,4]triazolo[4,3-c]pyrimidin-8-yl)pyridin-2-yl)methanol]

IC50 [1]: 8.4 nM
IC50 [2]: 3.9 nM
Compound: O=C(c1ccc(-c2cnc(NCc3c(F)ccc4c3CCO4)n3cnnc23)cn1)N1CCCC1 [Example 129, (5-(5-(((5-fluoro-2,3-dihydrobenzofuran-4-yl)methyl)amino)-[1,2,4]triazolo[4,3-c]pyrimidin-8-yl)pyridin-2-yl)(pyrrolidin-1-yl)methanone]

IC50 [1]: 5.7 nM
IC50 [2]: 2.2 nM
Compound: Cc1cc(OC(F)F)ncc1-c1cnc(NCc2c(F)ccc3c2CCO3)n2cnnc12 [Example 197, 8-(6-(difluoromethoxy)-4-methylpyridin-3-yl)-N-((5-fluoro-2,3-dihydrobenzofuran-4-yl)methyl)-[1,2,4]triazolo[4,3-c]pyrimidin-5-amine]

IC50 [1]: 8.2 nM
IC50 [2]: 3.6 nM
Compound: CCOc1cc(C)c(-c2cnc(NCc3c(F)ccc4c3CCO4)n3cnnc23)cn1 [Example 196, 8-(6-ethoxy-4-methylpyridin-3-yl)-N-((5-fluoro-2,3-dihydrobenzofuran-4-yl)methyl)-[1,2,4]triazolo[4,3-c]pyrimidin-5-amine]

IC50 [1]: 10.3 nM
IC50 [2]: 4.5 nM
Compound: CN(C)CCc1cccc(-c2cnc(NCc3cccc4c3CCO4)n3cnnc23)c1 [Example 89, N-((2,3-dihydrobenzofuran-4-yl)methyl)-8-(3-(2-(dimethylamino)ethyl)phenyl)-[1,2,4]triazolo[4,3-c]pyrimidin-5-amine]

IC50 [1]: 12.9 nM
IC50 [2]: 6.3 nM
Compound: CC(O)c1ccc(-c2cnc(NCc3cccc4c3CCO4)n3cnnc23)cn1 (centres unmarked) [Example 84, 1-(5-(5-(((2,3-dihydrobenzofuran-4-yl)methyl)amino)-[1,2,4]triazolo[4,3-c]pyrimidin-8-yl)pyridin-2-yl)ethanol]

IC50 [1]: 8.3 nM
IC50 [2]: 5.9 nM
Compound: Cc1ncncc1-c1cnc(NCc2c(F)ccc3c2CCO3)n2cnnc12 [Example 176, N-((5-fluoro-2,3-dihydrobenzofuran-4-yl)methyl)-8-(4-methylpyrimidin-5-yl)-[1,2,4]triazolo[4,3-c]pyrimidin-5-amine]

IC50 [1]: 10 nM
IC50 [2]: 3.1 nM
Compound: Fc1ccc2c(c1CNc1ncc(-n3cccn3)c3nncn13)CCO2 [Example 237, N-((5-fluoro-2,3-dihydrobenzofuran-4-yl)methyl)-8-(1H-pyrazol-1-yl)-[1,2,4]triazolo[4,3-c]pyrimidin-5-amine]
